Source: EP0545195B1, “Indolopyrrolocarbazole derivatives” (BANYU PHARMACEUTICAL CO., LTD., priority 1991, dated 1993)

Columns and labels:
mouse leukemia cell P388 = assay: Proliferation inhibition activity against mouse leukemia cell (Thiazoyl Blue assay); assay type: cell-based; conditions: P388 cells, 24 hours culture with test compound, absorbance at 550 nm, read-out: 50% inhibitory concentration (IC₅₀)
Experimental: (2) Proliferation inhibition activity against mouse leukemia cell
100 µl portions of a cell culturing medium (10% fetal bovine serum-containing-RPMI-1640 medium) containing 3x10³ mouse leukemia cell (P388) were put in a 96-hole microplate, the cells were cultured under 5% CO₂ at 37°C for 24 hours, 10 µl each of test solutions containing test compounds respectively were added respectively, and the cells were further cultured under 5% CO₂ at 37°C for 24 hours. 10 µl portions of 0.5% Thiazoyl Blue were added to the culture broths, and incubation was carried out under 5% CO₂ at 37°C for 2 hours to carry out enzymatic reaction. 20% sodium dodecyl sulfate (SDS) was added to discontinue the reaction, incubation was further carried out at 37°C for 4 hours to dissolve the formed dye, and absorbance at 550 nm was measured and compared with the control group.

mouse tumor (P388) = assay: Therapeutic effect against mouse tumor (P388); assay type: in vivo; conditions: P388, 10⁶ cancer cells inoculated i.p.
From the text: (1) Therapeutic effect against mouse tumor (P388)

[1] = dose 1 mg/kg/injection i.p. once a day from 1st to 10th day
[2] = dose 3 mg/kg/injection i.p. once a day from 1st to 10th day
[3] = dose 10 mg/kg/injection i.p. once a day from 1st to 10th day
[4] = dose 30 mg/kg/injection i.p. once a day from 1st to 10th day
[5] = dose 100 mg/kg/injection i.p. once a day from 1st to 10th day

| IC50 (mouse leukemia cell P388) [nM] | SMILES | also measured |
| --- | --- | --- |
| 170 | O=C(NN1C(=O)c2c(c3c4cccc(O)c4n([C@@H]4O[C@H](CO)[C@@H](O)[C@H](O)[C@H]4O)c3c3[nH]c4c(O)cccc4c23)C1=O)c1ccccn1 [Example 35] |  |
| < 25 | O=C1c2c(c3c4cccc(O)c4n([C@@H]4O[C@H](CO)[C@@H](O)[C@H](O)[C@H]4O)c3c3[nH]c4c(O)cccc4c23)C(=O)N1NCc1cccc(O)c1 [Example 23] |  |
| 59 | CC(=O)NN1C(=O)c2c(c3c4cccc(O)c4n([C@@H]4O[C@H](CO)[C@@H](O)[C@H](O)[C@H]4O)c3c3[nH]c4c(O)cccc4c23)C1=O [Example 6] |  |
| < 30 | NN1C(=O)c2c(c3c4cccc(O)c4n([C@@H]4O[C@H](CO)[C@@H](O)[C@H](O)[C@H]4O)c3c3[nH]c4c(O)cccc4c23)C1=O [Example 1] |  |
| 1 | N#CCCNN1C(=O)c2c(c3c4cccc(O)c4n([C@@H]4O[C@H](CO)[C@@H](O)[C@H](O)[C@H]4O)c3c3[nH]c4c(O)cccc4c23)C1=O [Example 24] |  |
| 110 | O=C(Nc1ccccc1)NN1C(=O)c2c(c3c4cccc(O)c4n([C@@H]4O[C@H](CO)[C@@H](O)[C@H](O)[C@H]4O)c3c3[nH]c4c(O)cccc4c23)C1=O [Example 33] |  |
| 310 | O=C1c2c(c3c4cccc(O)c4n([C@@H]4O[C@H](CO)[C@@H](O)[C@H](O)[C@H]4O)c3c3[nH]c4c(O)cccc4c23)C(=O)N1Nc1ccccn1 [Example 15] |  |
| 11 | CC1(C)OC[C@@H]([C@@H](O)C(=O)NN2C(=O)c3c(c4c5cccc(O)c5n([C@@H]5O[C@H](CO)[C@@H](O)[C@H](O)[C@H]5O)c4c4[nH]c5c(O)cccc5c34)C2=O)O1 [Example 31] |  |
| 44 | NC(=O)C(=O)NN1C(=O)c2c(c3c4cccc(O)c4n([C@@H]4O[C@H](CO)[C@@H](O)[C@H](O)[C@H]4O)c3c3[nH]c4c(O)cccc4c23)C1=O [Example 17] |  |
| 460 | NC(=S)NN1C(=O)c2c(c3c4cccc(O)c4n([C@@H]4O[C@H](CO)[C@@H](O)[C@H](O)[C@H]4O)c3c3[nH]c4c(O)cccc4c23)C1=O [Example 10] |  |
| 5 | O=C1c2c(c3c4cccc(O)c4n([C@@H]4O[C@H](CO)[C@@H](O)[C@H](O)[C@H]4O)c3c3[nH]c4c(O)cccc4c23)C(=O)N1N(Cc1ccccc1)Cc1ccccc1 [Example 29] |  |
| 220 | O=C1c2c(c3c4cccc(O)c4n([C@@H]4O[C@H](CO)[C@@H](O)[C@H](O)[C@H]4O)c3c3[nH]c4c(O)cccc4c23)C(=O)N1NC(=O)C(F)(F)F [Example 13] |  |
| 48 | O=C1c2c(c3c4cccc(O)c4n([C@@H]4O[C@H](CO)[C@@H](O)[C@H](O)[C@H]4O)c3c3[nH]c4c(O)cccc4c23)C(=O)N1NC1=NCCN1 [Example 25] |  |
| 65 | O=C(O)CCC=NN1C(=O)c2c(c3c4cccc(O)c4n([C@@H]4O[C@H](CO)[C@@H](O)[C@H](O)[C@H]4O)c3c3[nH]c4c(O)cccc4c23)C1=O [Example 3] |  |
| 19 | O=C(NN1C(=O)c2c(c3c4cccc(O)c4n([C@@H]4O[C@H](CO)[C@@H](O)[C@H](O)[C@H]4O)c3c3[nH]c4c(O)cccc4c23)C1=O)c1ccccc1 [Example 34] |  |
| < 26 | CS(=O)(=O)NN1C(=O)c2c(c3c4cccc(O)c4n([C@@H]4O[C@H](CO)[C@@H](O)[C@H](O)[C@H]4O)c3c3[nH]c4c(O)cccc4c23)C1=O [Example 11] |  |
| 3 | COC(=O)NN1C(=O)c2c(c3c4cccc(O)c4n([C@@H]4O[C@H](CO)[C@@H](O)[C@H](O)[C@H]4O)c3c3[nH]c4c(O)cccc4c23)C1=O [Example 30] |  |
| 300 | O=C(O)CNN1C(=O)c2c(c3c4cccc(O)c4n([C@@H]4O[C@H](CO)[C@@H](O)[C@H](O)[C@H]4O)c3c3[nH]c4c(O)cccc4c23)C1=O [Example 8] |  |
| 42 | CCC(=O)NN1C(=O)c2c(c3c4cccc(O)c4n([C@@H]4O[C@H](CO)[C@@H](O)[C@H](O)[C@H]4O)c3c3[nH]c4c(O)cccc4c23)C1=O [Example 12] |  |
| 95 | O=C1c2c(c3c4cccc(O)c4n([C@@H]4O[C@H](CO)[C@@H](O)[C@H](O)[C@H]4O)c3c3[nH]c4c(O)cccc4c23)C(=O)N1N1CCCC1 [Example 37] |  |
| < 27 | NC(=O)CNN1C(=O)c2c(c3c4cccc(O)c4n([C@@H]4O[C@H](CO)[C@@H](O)[C@H](O)[C@H]4O)c3c3[nH]c4c(O)cccc4c23)C1=O [Example 14] |  |
| < 29 | C=CCNN1C(=O)c2c(c3c4cccc(O)c4n([C@@H]4O[C@H](CO)[C@@H](O)[C@H](O)[C@H]4O)c3c3[nH]c4c(O)cccc4c23)C1=O [Example 28] |  |
| 28 | NC(=O)NN1C(=O)c2c(c3c4cccc(O)c4n([C@@H]4O[C@H](CO)[C@@H](O)[C@H](O)[C@H]4O)c3c3[nH]c4c(O)cccc4c23)C1=O [Example 9] |  |
| 91 | CNN1C(=O)c2c(c3c4cccc(O)c4n([C@@H]4O[C@H](CO)[C@@H](O)[C@H](O)[C@H]4O)c3c3[nH]c4c(O)cccc4c23)C1=O [Example 7] |  |
| 2 | O=C1c2c(c3c4cccc(O)c4n([C@@H]4O[C@H](CO)[C@@H](O)[C@H](O)[C@H]4O)c3c3[nH]c4c(O)cccc4c23)C(=O)N1NCCO [Example 36] |  |
| 96 | CO[C@H]1[C@H](O)[C@@H](O)[C@H](n2c3c(Cl)cccc3c3c4c(c5c6cccc(Cl)c6[nH]c5c32)C(=O)N(N)C4=O)O[C@@H]1CO [Example 4, 6-N-aminorebeccamycin] |  |
| 110 | NNC(=O)NN1C(=O)c2c(c3c4cccc(O)c4n([C@@H]4O[C@H](CO)[C@@H](O)[C@H](O)[C@H]4O)c3c3[nH]c4c(O)cccc4c23)C1=O [Example 22] |  |
| 27 | CC(C)(C)OC(=O)NN1C(=O)c2c(c3c4cccc(O)c4n([C@@H]4O[C@H](CO)[C@@H](O)[C@H](O)[C@H]4O)c3c3[nH]c4c(O)cccc4c23)C1=O [Example 27] |  |

| SMILES | IC50 (mouse leukemia cell P388) [nM] | also measured |
| --- | --- | --- |
| O=CNN1C(=O)c2c(c3c4cccc(O)c4n([C@@H]4O[C@H](CO)[C@@H](O)[C@H](O)[C@H]4O)c3c3[nH]c4c(O)cccc4c23)C1=O [Example 5] | 280 | MST (mean survival number of days) (mouse tumor (P388); [1]): 16.8 ± 0.84 days; T/C (%) (MST of treatment group/MST of control x 100) (mouse tumor (P388); [1]): 137%; MST (mean survival number of days) (mouse tumor (P388); [2]): 17.8 ± 1.92 days; T/C (%) (MST of treatment group/MST of control x 100) (mouse tumor (P388); [2]): 145%; MST (mean survival number of days) (mouse tumor (P388); [3]): >26.2 ± 10.18 days; T/C (%) (MST of treatment group/MST of control x 100) (mouse tumor (P388); [3]): >213%; MST (mean survival number of days) (mouse tumor (P388); [4]): >23.4 ± 9.74 days; T/C (%) (MST of treatment group/MST of control x 100) (mouse tumor (P388); [4]): >190%; MST (mean survival number of days) (mouse tumor (P388); [5]): >36.4 ± 8.05 days; T/C (%) (MST of treatment group/MST of control x 100) (mouse tumor (P388); [5]): >296% |
| O=C(O)C=NN1C(=O)c2c(c3c4cccc(O)c4n([C@@H]4O[C@H](CO)[C@@H](O)[C@H](O)[C@H]4O)c3c3[nH]c4c(O)cccc4c23)C1=O [Example 2] | 290 | MST (mean survival number of days) (mouse tumor (P388); [1]): 15.8 ± 0.84 days; T/C (%) (MST of treatment group/MST of control x 100) (mouse tumor (P388); [1]): 128%; MST (mean survival number of days) (mouse tumor (P388); [2]): 17.8 ± 1.92 days; T/C (%) (MST of treatment group/MST of control x 100) (mouse tumor (P388); [2]): 145%; MST (mean survival number of days) (mouse tumor (P388); [3]): >26.4 ± 18.82 days; T/C (%) (MST of treatment group/MST of control x 100) (mouse tumor (P388); [3]): >245%; MST (mean survival number of days) (mouse tumor (P388); [4]): >42.2 ± 24.38 days; T/C (%) (MST of treatment group/MST of control x 100) (mouse tumor (P388); [4]): >343%; MST (mean survival number of days) (mouse tumor (P388); [5]): >47.2 ± 18.90 days; T/C (%) (MST of treatment group/MST of control x 100) (mouse tumor (P388); [5]): >384% |
